Assay [1] concerns miR126. Kind of assay: miRNA 126 expression in AML and CML cell lines by Q-RT-PCR. In kind it is cell-based, human. Particulars: 500 nM, 24 hours. As to the method:
FIGS. 4A-4G are bar graphs showing miRNA 126 expression in AML and CML cell lines. Cells were cultured with miR126-inhibitor-Cy3 (Cy3-200 nM0, human CD45 (Ab-200 nM) or Transferrin (TF-200 nM)-conjugated NP containing antagomiR-126-Cy3, CpG-miR126 inhibitor-Cy3 (CpG-Cy3-200 nM and 500 nM) for 24 hours, then miR126 and RNU44 (control) expression in these cells was analyzed by q-RT PCR. The miR126 expression levels were normalized to RNU44 and calculated by using the comparative 2^−ΔΔct method. FIG. 4A is a bar graph showing miRNA 126 expression in the K562 CML cell line. FIG. 4B is a bar graph showing miRNA 126 expression in the KG1A AML cell line. FIG. 4C is a bar graph showing miRNA 126 expression in the MV4-11 AML cell line. FIG. 4D is a bar graph showing the miRNA 126 expression in the Molm13 AML cell line. FIG. 4E is a bar graph showing the miRNA 126 expression in the NB4 AML cell line. […]
miRNA 126 expression in AML and CML lines was evaluated. CML (K562) (FIG. 4A) and AML cell lines (KG1A, MV4-11, Molm13, NB4, OCI and HL60) (FIGS. 4B-4G) were cultured with anti-miR126 inhibitor-Cy3 (Cy3 ctrl, 200 nM), human CD45 (Ab-NP, 200 nM) or Transferrin (TF-NP, 200 nM)-conjugated NP containing anti-miR-126-Cy3, or CpG-anti-miR126 inhibitor-Cy3 (CpG-200 nM and 500 nM) for 24 hours, then miR126 and RNU44 (control) expression in these cells were analyzed by Q-RT-PCR.

Assay [2] deals with miR126. The experiment in a line: miRNA126 expression in NL/CB, AML and CML CD34+ cells by Q-RT-PCR. The class given is cell-based, human. The note with it: 500 nM, 24 hours; primary patients' AML and CML CD34+ cells. As to the method: FIG. 5 is a bar graph showing the expression of miRNA 126 in NL/CB, AML and CML CD34+ cells. Normal, cord blood, AML and CML CD34+ cells were cultured with CpG-scramble RNA (500 nM) and CpG-miR 126 inhibitor-Cy3 (500 nM) for 24 hours. miR126 and RNU44 (control) expression was analyzed by q-RT-PCR. The miR126 expression levels were normalized to RNU44 and calculated by using the comparative 2^−ΔΔct method.
Normal, cord blood, AML and CML CD34+ cells were cultured with CpG-scramble RNA (500 nM) and CpG-anti-miR126 inhibitor-Cy3 (500 nM) for 24 hours, and then miR126 and RNU44 (ctrl) expression in these cells were analyzed by Q-RT-PCR (FIG. 5). The miR126 expression levels were normalized to RNU44 and calculated by using the comparative 2^−ΔΔCt method.

Assay [3] relates to CML CD34+, CD34+CD38+ committed and CD34+CD38− primitive progenitors. Kind of assay: Apoptosis of CML progenitors by Annexin V/DAPI staining. The class given is cell-based, human. The note with it: 500 nM combined with NIL 5 uM, 72 hours, compared with CpG-scramble and NIL. As to the method: CML CD34+, CD34+CD38+ committed and CD34+CD38− primitive progenitors were cultured with CpG-scramble RNA (500 nM), CpG-miR126 inhibitor (500 nM), CpG-scramble RNA (500 nM)+Nilotinib (5 μM), and CpG-miR126 inhibitor (500 nM)+NIL (5 μM) for 72 hours and then apoptosis was analyzed by Annexin V/DAPI staining.
CML CD34+, CD34+CD38+ committed and CD34+CD38− primitive progenitors were cultured with CpG-scramble RNA (500 nM), CpG-anti-miR126 inhibitor (500 nM), CpG-scramble RNA (500 nM)+Nilotinib (NIL, 5 uM), and CpG-anti-miR126 inhibitor (500 nM)+NIL (5 uM) for 72 hours and then cell cycling and apoptosis were analyzed by EDU/DAPi and Annexin V/DAPi staining.

For a further assay, the system named is human AML CD34+ cells. Kind of assay: Cell cycling, apoptosis and cell growth of AML CD34+ cells with Ara-c and Doxo. The class given is cell-based. The note with it: 500 nM combined with Ara-c and Doxo. As to the method: AML CD34+ cells were cultured with CpG-anti-miR-126 or CpG-SCR (500 nM) for 48 hours, then furthered cultured with miR126 inh+Ara-c+Doxo or SCR+A+D for 72 hours, then cell cycling, apoptosis (FIG. 12B) and cell growth (FIG. 12C) were analyzed.

Setting [4] is: compared with Ara-c and Doxo alone.

The results in this text go back to patent US11591596B2, “Compounds and compositions including phosphorothioated oligodeoxynucleotide, and methods of use thereof” (City of Hope, priority 2015, dated 2023).

On to “5′ G*G*T GCA TCG ATG CAGG*G*G* G*G (SEQ ID NO: 1) xxxxx mCmGmC mAmUmU mAmUmU mAmCmU mCmAmC mGmGmU mAmCmG mA (SEQ ID NO: 17) 3′ [CpG-anti-miR126]”, for which, in the assay on miR126 [1] (all tested human AML and CML cell lines), the “downregulation of miRNA126” value is “most effective downregulation”. The “reduction of target miRNA expression” value with miR126 [1] (HL60, K562, MV4-11, MOLM13 and OCI cells) is recorded as “more than 50%”. For the same substance, the “reduction of miR126 expression” value in the assay on miR126 [2] was 60%-90%. Besides, the apoptosis result in assay [3] is recorded as “Increased apoptosis”. For the same substance, the cell growth result in the assay with human AML CD34+ cells is “reduction of cell growth”. For the same substance, in the assay on human AML CD34+ cells (setting [4]), the apoptosis entry is recorded as “significantly increased” and the cell cycling result is listed as “significantly increased”.
